Measurements as given in patent US20130317064A1 (priority 2011, published 2013).

melting point: 102 to 105 °C
Compound: Cc1cc(C(F)(F)F)nn1CC(=O)N1CCC(c2nc(NC(=O)C3=C(O)CCCC3=O)cs2)CC1 [I.a.001, 2-hydroxy-6-oxo-cyclohex-1-enecarboxylic acid (2-{1-[2-(5-methyl-3-trifluoromethyl-pyrazol-1-yl)-acetyl]-piperidin-4-yl}-thiazol-4-yl)-amide]
